Source: article PMC7835349 (Communications Biology, 2021)
“And” between values parts separate entries of the source, which are not always exact repeats. Identical values can stand only once.

System: telemetered dogs
Assay: Conscious dog telemetry (QRS amplitude and other cardiovascular parameters, tolerability)
[1] = dog, 0.2 mg/kg 0.5h infusion, 22 h, 0.2 mg/kg
[2] = dog, 0.2 mg/kg 0.5h infusion, -0.75 h, 0.2 mg/kg
[3] = dog, 0.2 mg/kg 0.5h infusion, -1 h, 0.2 mg/kg
[4] = dog, 0.2 mg/kg 0.5h infusion, -1.25 h, 0.2 mg/kg
[5] = dog, 0.85 mg/kg 0.5h infusion, 0.5 h, 0.85 mg/kg
[6] = dog, 0.85 mg/kg 0.5h infusion, 0.75 h, 0.85 mg/kg
[7] = dog, 0.85 mg/kg 0.5h infusion, 1 h, 0.85 mg/kg
[8] = dog, 0.85 mg/kg 0.5h infusion, 1.5 h, 0.85 mg/kg
[9] = dog, 0.85 mg/kg 0.5h infusion, 2 h, 0.85 mg/kg
[10] = dog, 0.85 mg/kg 0.5h infusion, 3 h, 0.85 mg/kg
[11] = dog, 0.85 mg/kg 0.5h infusion, 4 h, 0.85 mg/kg
[12] = dog, 0.85 mg/kg 0.5h infusion, 6 h, 0.85 mg/kg
[13] = dog, 0.85 mg/kg 0.5h infusion, 8 h, 0.85 mg/kg
[14] = dog, 0.85 mg/kg 0.5h infusion, 12 h, 0.85 mg/kg
[15] = dog, 0.85 mg/kg 0.5h infusion, 16 h, 0.85 mg/kg
[16] = dog, 0.85 mg/kg 0.5h infusion, 22 h, 0.85 mg/kg
[17] = dog, 0.85 mg/kg 0.5h infusion, -0.75 h, 0.85 mg/kg
[18] = dog, 0.85 mg/kg 0.5h infusion, -1 h, 0.85 mg/kg
[19] = dog, 0.85 mg/kg 0.5h infusion, -1.25 h, 0.85 mg/kg
[20] = dog, AZD4320 0.2 mg/kg, 0.5 h infusion
[21] = dog, AZD4320 0.85 mg/kg, 0.5 h infusion
[22] = dog, AZD4320 0.85 mg/kg, 3 h infusion
[23] = dog, AZD4320 1 mg/kg, 0.5 h infusion
[24] = dog, AZD4320 1.75 mg/kg, 0.5 h infusion

Structure (SMILES): CN(CCO)CCC(CSc1ccccc1)Nc1ccc(S(=O)(=O)NC(=O)c2ccc(N3CCC(C(O)c4ccccc4-c4ccc(Cl)cc4)CC3)cc2)cc1S(=O)(=O)C(F)(F)F (centres unmarked) [AZD4320]
- QRS amplitude (% baseline) [1]: 114 % baseline and 97 % baseline and 102 % baseline
- Systolic blood pressure (mmHg) [1]: 156 mmHg and 142 mmHg
- ECG PR interval [2]: 90 ms and 106 ms and 89 ms
- ECG QRS duration [2]: 37 ms and 40 ms
- Left ventricular -dP/dt (mmHg/s) [2]: 3499 mmHg/s and 3284 mmHg/s and 4521 mmHg/s
- QRS amplitude (% baseline) [2]: 97 % baseline and 88 % baseline and 93 % baseline
- Systolic blood pressure (mmHg) [2]: 168 mmHg and 148 mmHg and 160 mmHg
- ECG PR interval [3]: 91 ms and 102 ms and 82 ms
- ECG QRS duration [3]: 38 ms and 40 ms and 37 ms
- Left ventricular -dP/dt (mmHg/s) [3]: 3364 mmHg/s and 3529 mmHg/s and 4819 mmHg/s
- QRS amplitude (% baseline) [3]: 99 % baseline and 90 % baseline and 93 % baseline
- Systolic blood pressure (mmHg) [3]: 161 mmHg and 160 mmHg and 157 mmHg
- ECG PR interval [4]: 90 ms and 95 ms and 93 ms
- ECG QRS duration [4]: 37 ms and 40 ms
- Left ventricular -dP/dt (mmHg/s) [4]: 3238 mmHg/s and 3347 mmHg/s and 4656 mmHg/s
- QRS amplitude (% baseline) [4]: 104 % baseline and 91 % baseline and 97 % baseline
- Systolic blood pressure (mmHg) [4]: 147 mmHg and 150 mmHg and 151 mmHg
- QRS amplitude (% baseline) (dog, 0.2 mg/kg 0.5h infusion, -[…]): 100 % baseline
- ECG PR interval [5]: 115 ms and 79 ms
- ECG QRS duration [5]: 45 ms and 37 ms and 40 ms
- Left ventricular -dP/dt (mmHg/s) [5]: 3662 mmHg/s and 3777 mmHg/s and 3464 mmHg/s
- QRS amplitude (% baseline) [5]: 94 % baseline and 95 % baseline and 97 % baseline
- Systolic blood pressure (mmHg) [5]: 155 mmHg and 158 mmHg
- ECG PR interval [6]: 119 ms and 78 ms
- ECG QRS duration [6]: 44 ms and 38 ms and 40 ms
- Left ventricular -dP/dt (mmHg/s) [6]: 3170 mmHg/s and 3744 mmHg/s and 3322 mmHg/s
- QRS amplitude (% baseline) [6]: 99 % baseline and 91 % baseline and 104 % baseline
- Systolic blood pressure (mmHg) [6]: 154 mmHg and 157 mmHg
- ECG PR interval [7]: 115 ms and 91 ms
- ECG QRS duration [7]: 44 ms and 37 ms and 40 ms
- Left ventricular -dP/dt (mmHg/s) [7]: 3366 mmHg/s and 3696 mmHg/s and 3150 mmHg/s
- QRS amplitude (% baseline) [7]: 100 % baseline and 90 % baseline and 102 % baseline
- Systolic blood pressure (mmHg) [7]: 135 mmHg and 151 mmHg
- ECG PR interval [8]: 117 ms and 112 ms
- ECG QRS duration [8]: 44 ms and 39 ms and 40 ms
- Left ventricular -dP/dt (mmHg/s) [8]: 3030 mmHg/s and 3166 mmHg/s
- QRS amplitude (% baseline) [8]: 78 % baseline and 86 % baseline
- Systolic blood pressure (mmHg) [8]: 147 mmHg and 138 mmHg
- ECG PR interval [9]: 111 ms and 87 ms
- ECG QRS duration [9]: 42 ms and 36 ms and 39 ms
- Left ventricular -dP/dt (mmHg/s) [9]: 2904 mmHg/s and 3371 mmHg/s
- QRS amplitude (% baseline) [9]: 75 % baseline and 83 % baseline
- Systolic blood pressure (mmHg) [9]: 144 mmHg and 171 mmHg
- ECG PR interval [10]: 99 ms and 81 ms
- ECG QRS duration [10]: 37 ms and 33 ms
- QRS amplitude (% baseline) [10]: 59 % baseline and 60 % baseline
- Systolic blood pressure (mmHg) [10]: 142 mmHg and 156 mmHg
- ECG PR interval [11]: 93 ms and 79 ms
- ECG QRS duration [11]: 36 ms and 33 ms
- QRS amplitude (% baseline) [11]: 56 % baseline and 60 % baseline
- Systolic blood pressure (mmHg) [11]: 128 mmHg and 137 mmHg
- ECG PR interval [12]: 89 ms and 79 ms
- ECG QRS duration [12]: 37 ms and 35 ms
- Left ventricular -dP/dt (mmHg/s) [12]: 2074 mmHg/s and 2402 mmHg/s
- QRS amplitude (% baseline) [12]: 67 % baseline and 70 % baseline
- Systolic blood pressure (mmHg) [12]: 116 mmHg and 117 mmHg
- ECG PR interval [13]: 88 ms and 83 ms
- ECG QRS duration [13]: 37 ms and 34 ms
- Left ventricular -dP/dt (mmHg/s) [13]: 2367 mmHg/s and 2612 mmHg/s
- QRS amplitude (% baseline) [13]: 78 % baseline and 80 % baseline
- Systolic blood pressure (mmHg) [13]: 120 mmHg and 124 mmHg
- ECG PR interval [14]: 85 ms
- ECG QRS duration [14]: 40 ms and 36 ms
- Left ventricular -dP/dt (mmHg/s) [14]: 3043 mmHg/s and 2589 mmHg/s
- QRS amplitude (% baseline) [14]: 84 % baseline and 70 % baseline
- Systolic blood pressure (mmHg) [14]: 128 mmHg and 131 mmHg
- ECG PR interval [15]: 102 ms and 87 ms
- ECG QRS duration [15]: 42 ms and 37 ms
- Left ventricular -dP/dt (mmHg/s) [15]: 3119 mmHg/s and 2829 mmHg/s
- QRS amplitude (% baseline) [15]: 98 % baseline and 70 % baseline
- Systolic blood pressure (mmHg) [15]: 130 mmHg and 147 mmHg
- ECG PR interval [16]: 112 ms and 84 ms
- ECG QRS duration [16]: 44 ms and 36 ms
- Left ventricular -dP/dt (mmHg/s) [16]: 3111 mmHg/s and 3851 mmHg/s
- QRS amplitude (% baseline) [16]: 101 % baseline and 78 % baseline
- Systolic blood pressure (mmHg) [16]: 132 mmHg and 149 mmHg
- ECG PR interval [17]: 111 ms and 99 ms
- ECG QRS duration [17]: 45 ms and 39 ms
- Left ventricular -dP/dt (mmHg/s) [17]: 3973 mmHg/s and 3847 mmHg/s and 2891 mmHg/s
- QRS amplitude (% baseline) [17]: 100 % baseline and 105 % baseline and 103 % baseline
- Systolic blood pressure (mmHg) [17]: 162 mmHg and 159 mmHg
- ECG PR interval [18]: 108 ms and 98 ms
- ECG QRS duration [18]: 44 ms and 36 ms and 39 ms
- Left ventricular -dP/dt (mmHg/s) [18]: 3612 mmHg/s and 3810 mmHg/s and 3070 mmHg/s
- QRS amplitude (% baseline) [18]: 101 % baseline and 100 % baseline and 107 % baseline
- Systolic blood pressure (mmHg) [18]: 149 mmHg and 163 mmHg
- ECG PR interval [19]: 110 ms and 96 ms and 89 ms
- ECG QRS duration [19]: 44 ms and 37 ms and 40 ms
- Left ventricular -dP/dt (mmHg/s) [19]: 3200 mmHg/s and 3594 mmHg/s and 2862 mmHg/s
- QRS amplitude (% baseline) [19]: 100 % baseline and 105 % baseline
- Systolic blood pressure (mmHg) [19]: 142 mmHg and 165 mmHg and 139 mmHg
- QRS amplitude (% baseline) (dog, 0.85 mg/kg 0.5h infusion, -[…]): 100 % baseline
- tolerability (dog, 1 mg/kg AZD4320): not tolerated
- Effects [20]: No effect level
- Tolerated? [20]: Yes
- Effects other than QRS amplitude [21]: ↓SBP, ↑HR, ↓dP/dt-, ↓PR interval, ↓QRS interval, ↓LVEDP
- Tolerated? [21]: Yes
- ↓QRS amplitude (% decrease) [21]: 49%
- Tolerated? [22]: Yes
- ↓QRS amplitude (% decrease) [22]: 32%
- Effects other than QRS amplitude [23]: poorly tolerated
- Tolerated? [23]: No
- ↓QRS amplitude (% decrease) [23]: 75%
- Effects other than QRS amplitude [24]: ↓SBP, ↑HR, ↓dP/dt-, ↓PR interval, ↓QRS interval, ↓LVEDP
- Tolerated? [24]: No
- ↓QRS amplitude (% decrease) [24]: 94%
- cardiovascular changes (preclinical development, Supplementary Fig. 1a, b): dose-dependent decreases in QRS amplitude, QRS duration & PR intervals, blood pressure, left ventricular pressure and contractility
